Reference: publication PMC4686899, “Peptides derived from CXCL8 based on in silico analysis inhibit CXCL8 interactions with its receptor CXCR1” (Scientific Reports, 2015)
Ends that are not written are not given here.

Key:
[1] = tested on: THP-1 cell adhesion to CXCL8-treated HMEC-1; format: cell-based, human; conditions: 25 ng/ml CXCL8, 18 h, no peptide, vs control
Description: Human micro-vascular endothelial cell-1 (HMEC-1, from American Type Culture Collection Manassas, USA) was maintained in MCDB 131 medium (Sigma, USA) with L-glutamine and fetal bovine serum (Sigma, USA) to a final concentration of 15%. The medium was supplemented with 500 units/ml penicillin (Biowest, USA), 500 μg/ml streptomycin (Biowest, USA), 10 ng/ml Epidermal Growth Factor (ProSpec, USA) and 1 µg/ml hydrocortisone (Sigma, USA). The THP-1 cells were maintained in the RPMI-1640 medium (Invitrogen, USA) with 10% FBS. For the assay of THP-1 cell adhesion to HMEC-1 monolayers, confluent HMEC-1 cell monolayers cultured on 24-well plates were pretreated with peptides for one hour and activated with 25 ng/ml LPS (Sigma, USA) or full length CXCL8 (ProSpec, USA) for 18 hours. THP-1 monocytes were suspended in RPMI 1640 and prelabeled with 5 mM Calcein-AM (Invitrogen, USA) for 30 minutes. Before the THP-1 cells were added to HMEC-1, the monolayers were washed twice to remove LPS or CXCL8. Fluorescence labeled monocytes (3 × 10^5 cells/well) were then added to HMEC-1 and incubated for 30 minutes at 37 °C. […] The images of adhered THP-1 cells were photographed (five images per well) under fluorescent microscopy and the number of attached monocytes was counted with the software AlphaImager 2200 (Alpha Innotech, USA).

[2] = tested on: THP-1 transmigration across CXCL8-stimulated HMEC-1; experiment: CXCL8-induced monocyte transendothelial migration across HMEC-1 (Transwell); format: cell-based, human; conditions: 25 ng/ml CXCL8, 18 h, vs absence of CXCL8
Description: (§1) Human micro-vascular endothelial cell-1 (HMEC-1, from American Type Culture Collection Manassas, USA) was maintained in MCDB 131 medium (Sigma, USA) with L-glutamine and fetal bovine serum (Sigma, USA) to a final concentration of 15%. The medium was supplemented with 500 units/ml penicillin (Biowest, USA), 500 μg/ml streptomycin (Biowest, USA), 10 ng/ml Epidermal Growth Factor (ProSpec, USA) and 1 µg/ml hydrocortisone (Sigma, USA). The THP-1 cells were maintained in the RPMI-1640 medium (Invitrogen, USA) with 10% FBS.
Migration of THP-1 cells across HMEC-1 was performed in a Transwell system (BD Bioscences, USA). Briefly, HMEC-1 cells cultured on transwell (polycarbonate membranes with 8 μm pore sizes) filters were pretreated with peptides for one hour and then stimulated with 25 ng/ml LPS or CXCL8 for 18 hours. THP-1 monocytes (2 × 10^5 cells/well) were added to the upper chamber of transwell inserts containing 50 μl RPMI 1640. LPS (25 ng/ml), CXCL8 peptide (p_wt14) (0.5 and 5 mM), or both combinations were added to the lower chamber to initiate transmigration. After four hours of incubation at 37 °C under 5% CO2, cells that had transmigrated to the lower chamber were harvested and counted using microscopy. All experiments were measured in at least three independent studies, and the data represent the number of transmigrated THP-1 cells.

[3] = tested on: HMEC-1; experiment: Cell viability assay (WST-1); format: cell-based, human; conditions: various concentrations of p_wt14, 24 and 48 h, WST-1, vs control
Description: as §1
To evaluate if the peptide p_wt14 is toxic to the HMEC-1 under resting conditions, 2 × 10^4 cells were dispensed into each well of 96-well micro-plates and incubated for 2 hours for adhesion. After that, the medium containing peptide p_wt14 at various concentrations was added. After 24 and 48 hours of incubation, cells were washed with Hank’s balanced salt solution and the viabilities of HMEC-1were determined by WST-1 assay kit (Roche, USA). Each experiment was performed in quadruplicate and repeated at least three times.

[4] = target: CXCR1p receptor-derived peptide (Homo sapiens), P25024; experiment: SPR; conditions: modification not given
CXCR1p receptor-derived peptide (Homo sapiens), P25024, sequence (P25024 9-29): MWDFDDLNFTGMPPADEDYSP

CXCL8: chemokine CXCL8 (also known as interleukin-8 or IL-8), full length
effect of CXCL8 on monocyte adhesion to HMEC-1 (in words) [1]: significant increase in the number of adhered monocytes
effect of CXCL8 on monocyte transmigration (in words) [2]: considerable increase in monocyte transmigration

QCIKTYSKPFHPKF [p_wt14]
HMEC-1 cell viability (in words) [3]: no significant cell viability difference

IKTYSKPFHPKFIK [CXCL8 peptide p_wt14 14-residue peptide, P10145]
Kd [4]: 252 µM
